Measured values: ChEMBL document CHEMBL1201862, “PubChem BioAssay data set” (2004)
Active and inactive are the calls of the source. Cut-off read from the data, not from the text of the source, for most assays here: actives have a measured EC50 and inactives only a lower limit.

What was measured:
Estrogen receptor beta [1] = molecular target: T1, Estrogen receptor beta (Homo sapiens, UniProt Q92731);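 note: recombinant ER-beta bound to coactivator SRC1 peptide in presence of estradiol agonist; inhibitors block coactivator peptide binding and lower the FRET signal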
Estrogen receptor = molecular target: T2, Estrogen receptor (Homo sapiens, UniProt P03372);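 note: potency for inhibiting coactivator peptide recruitment to the receptor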
T2 sequence (P03372 whole entry): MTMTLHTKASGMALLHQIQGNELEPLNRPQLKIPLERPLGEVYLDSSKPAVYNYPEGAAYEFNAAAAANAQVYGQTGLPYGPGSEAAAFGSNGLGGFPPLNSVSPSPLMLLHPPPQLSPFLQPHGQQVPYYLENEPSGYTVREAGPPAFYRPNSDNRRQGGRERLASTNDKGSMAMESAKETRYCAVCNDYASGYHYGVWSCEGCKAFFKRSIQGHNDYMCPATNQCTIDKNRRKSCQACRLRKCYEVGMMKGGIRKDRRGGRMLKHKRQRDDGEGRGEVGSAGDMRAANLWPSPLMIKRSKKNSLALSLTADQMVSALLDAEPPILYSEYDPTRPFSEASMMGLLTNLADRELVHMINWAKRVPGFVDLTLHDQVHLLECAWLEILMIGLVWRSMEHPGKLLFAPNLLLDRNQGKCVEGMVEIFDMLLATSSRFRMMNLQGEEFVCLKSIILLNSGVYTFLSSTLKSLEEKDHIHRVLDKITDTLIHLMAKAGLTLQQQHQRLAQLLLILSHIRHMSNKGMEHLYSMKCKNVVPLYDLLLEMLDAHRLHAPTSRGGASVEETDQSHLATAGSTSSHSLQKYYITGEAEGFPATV

Estrogen receptor beta [2] = molecular target: T1, Estrogen receptor beta; test: ERβ–SRC-3 coactivator interaction inhibitors, confirmation, orthogonal assay, biochemical, ELISA, streptavidin-HRP readout (AID 1060)
[3] = inhibitors of SNCA 5'UTR-driven reporter translation, confirmation, H4 neuroglioma cells, luminescence (AID 1988); type: functional, cell-based
[4] = molecular target: ATP-dependent molecular chaperone HSP82 (Candida albicans (strain WO-1) (Yeast), UniProt C4YTQ8); test: loss of DOC-induced GRE-beta-galactosidase reporter signal, dose response, Hsp90 inhibitor project, S. cerevisiae, luminescence (AID 2400); type: functional, cell-based;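 note: beta-galactosidase luminescence from glucocorticoid response element reporter as proxy for Hsp90 function; inhibitor potency where signal loss means Hsp90 inhibition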
[5] = molecular target: T3, Serine/threonine-protein phosphatase (Candida dubliniensis (strain CD36 / CBS 7987 / NCPF 3949 / NRRLY-17841) (Yeast), UniProt B9W6M3); test: calcineurin pathway inhibitors in yeast reporter, dose response, S. cerevisiae, CDRE-lacZ, luminescence, secondary (AID 2388); type: functional, cell-based;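 note: yeast reporter cells carrying a calcineurin-responsive lacZ construct stimulated with calcium chloride; luminescent beta-galactosidase reporter signal in whole cells rather than isolated phosphatase activity; potency for inhibition where a drop in reporter signal means calcineurin blockade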
T3 sequence (B9W6M3 whole entry): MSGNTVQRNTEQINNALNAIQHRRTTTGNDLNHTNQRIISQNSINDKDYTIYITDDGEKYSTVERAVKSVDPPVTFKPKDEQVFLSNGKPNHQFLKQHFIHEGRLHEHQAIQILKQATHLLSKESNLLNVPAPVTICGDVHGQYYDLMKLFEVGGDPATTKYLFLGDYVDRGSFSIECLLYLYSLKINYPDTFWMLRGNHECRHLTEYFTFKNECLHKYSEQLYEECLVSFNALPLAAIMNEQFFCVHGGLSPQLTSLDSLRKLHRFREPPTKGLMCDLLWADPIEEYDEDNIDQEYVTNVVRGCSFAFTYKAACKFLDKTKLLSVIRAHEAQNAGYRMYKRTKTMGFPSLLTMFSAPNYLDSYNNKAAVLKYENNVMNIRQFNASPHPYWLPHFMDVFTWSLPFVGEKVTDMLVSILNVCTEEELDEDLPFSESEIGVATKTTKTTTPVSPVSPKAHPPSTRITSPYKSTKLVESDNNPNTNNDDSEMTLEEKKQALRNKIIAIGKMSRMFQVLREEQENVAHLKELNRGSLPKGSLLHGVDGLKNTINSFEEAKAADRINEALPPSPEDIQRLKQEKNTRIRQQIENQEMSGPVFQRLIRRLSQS

[6] = C. albicans growth with fluconazole, confirmation, fluorescence, retest (AID 2467); type: functional, cell-based
Melanocortin receptor 4 = Melanocortin receptor 4 (Homo sapiens, UniProt P32245); test: MC4R antagonist potency on cAMP, dose response, cell-based, TR-FRET, biased antagonists (AID 602298); type: functional;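 note: antagonist potency against agonist-stimulated cAMP production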
[7] = growth suppression of beta-catenin-knockout colon cells, dose response, cell-based, HCT116, human colon tumor (AID 1045); type: functional;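 note: HCT116 colon tumor cells with beta catenin knocked out; cells exposed to compound for 60 hours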
[8] = growth suppression of PTEN-null colon cells, dose response, cell-based, HCT116 PTEN knockout (AID 1047); type: functional;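 note: HCT116 colon tumor cells with PTEN knocked out; cells exposed to compound for 60 hours before readout; potency for loss of cell viability measured by luminescence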
[9] = nonselective inhibitors of cellular cAMP signaling, dose response, counter-screen for MC4R biased antagonist project, cell-based, TR-FRET cAMP detection (AID 602305); type: functional;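 note: U2OS cells stimulated with forskolin near its EC80 as the cAMP inducer; potency is for inhibition of forskolin-stimulated cAMP signaling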
[10] = NIH-3T3 fibroblast cytotoxicity, dose response, cytotoxicity control, cell-based, fluorescence, Alamar Blue, secondary assay (AID 2327); type: functional;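 note: NIH-3T3 mouse fibroblasts cultured with fluconazole at 8 µg/mL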
[11] = Luminescence Cell-Based Dose Response HTS to Identify Inhibitors of 5'UTR Stem-Loop Driven Prion Protein mRNA Translation in H4 Neuroglioblastoma Cells. [Related pubchem assays: 1827 (Project Summary), 1813 (Primary HTS)]; type: functional
BJ [12] = test: cytotoxicity toward Ras-transformed BJeLR fibroblasts, dose response, cell-based, alamar blue fluorescence, cherrypicked samples (AID 2631); type: functional; conditions: Homo sapiens;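 note: confirmatory dose-response assay in RAS-dependent BJ fibroblasts engineered with TERT, LT and ST, with cytotoxicity read by fluorescence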
BJ [13] = test: cytotoxicity toward BJ-TERT fibroblasts, dose response, cell-based, RAS-independent, luminescence (AID 1933); type: functional; conditions: Homo sapiens
Paired box protein Pax-8 = Paired box protein Pax-8 (Homo sapiens, UniProt Q06710); test: inhibitors of PAX8-driven TPO luciferase reporter, dose response, RMG-I cells, cherry-pick (AID 687027); type: functional, cell-based;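 note: luciferase reporter driven by Pax8 target thyroperoxidase promoter measured by SteadyGlo luminescence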
BJ [14] = test: cells; type: functional, cell-based; conditions: Homo sapiens
[15] = inhibitors of firefly luciferase expression or activity, dose response, H4 neuroglioma cells, luminescence (AID 1990); type: functional, cell-based
[16] = cytotoxicity toward DRD oncogenic fibroblasts, dose response, cell-based, non-viral oncogenic, luminescence (AID 1934); type: functional; conditions: Homo sapiens
BJ [17] = test: cytotoxicity toward BJ-TERT-LT-ST fibroblasts, dose response, cell-based, RAS-independent, luminescence (AID 1935); type: functional; conditions: Homo sapiens;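 note: BJ fibroblasts immortalized with TERT plus LT and ST oncogenes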
[18] = Luminescence-based dose response cell-based high throughput screening assay for cytotoxic compounds using the IEC-6 intestinal epithelial cell line. [Related pubchem assays: 1858 (Summary AID.), 1825 (Counterscreen.), 1907 (Confirmation screen.)]; type: functional

T1 sequence (Q92731 whole entry): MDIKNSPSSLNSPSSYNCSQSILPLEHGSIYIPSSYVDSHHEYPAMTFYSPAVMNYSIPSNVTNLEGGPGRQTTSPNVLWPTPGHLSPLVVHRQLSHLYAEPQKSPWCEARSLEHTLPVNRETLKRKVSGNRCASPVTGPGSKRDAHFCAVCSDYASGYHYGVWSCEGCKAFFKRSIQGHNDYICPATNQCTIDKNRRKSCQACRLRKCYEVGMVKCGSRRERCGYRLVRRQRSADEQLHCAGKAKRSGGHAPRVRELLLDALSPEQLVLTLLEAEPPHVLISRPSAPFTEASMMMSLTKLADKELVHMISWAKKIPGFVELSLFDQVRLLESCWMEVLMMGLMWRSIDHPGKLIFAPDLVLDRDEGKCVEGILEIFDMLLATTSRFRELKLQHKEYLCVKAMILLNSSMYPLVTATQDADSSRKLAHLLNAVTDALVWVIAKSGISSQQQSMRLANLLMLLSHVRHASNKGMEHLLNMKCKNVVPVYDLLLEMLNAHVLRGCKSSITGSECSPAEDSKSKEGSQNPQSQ
Chain of Melanocortin receptor 4 (P32245 whole entry): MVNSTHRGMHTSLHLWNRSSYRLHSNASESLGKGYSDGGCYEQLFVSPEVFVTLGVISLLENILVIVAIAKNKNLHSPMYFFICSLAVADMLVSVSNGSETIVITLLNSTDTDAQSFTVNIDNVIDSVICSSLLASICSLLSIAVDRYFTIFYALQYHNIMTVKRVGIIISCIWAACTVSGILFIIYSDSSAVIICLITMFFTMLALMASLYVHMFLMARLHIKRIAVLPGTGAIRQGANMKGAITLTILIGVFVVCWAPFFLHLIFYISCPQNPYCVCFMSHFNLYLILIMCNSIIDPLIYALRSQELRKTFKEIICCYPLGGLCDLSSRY
Chain of ATP-dependent molecular chaperone HSP82 (C4YTQ8 whole entry): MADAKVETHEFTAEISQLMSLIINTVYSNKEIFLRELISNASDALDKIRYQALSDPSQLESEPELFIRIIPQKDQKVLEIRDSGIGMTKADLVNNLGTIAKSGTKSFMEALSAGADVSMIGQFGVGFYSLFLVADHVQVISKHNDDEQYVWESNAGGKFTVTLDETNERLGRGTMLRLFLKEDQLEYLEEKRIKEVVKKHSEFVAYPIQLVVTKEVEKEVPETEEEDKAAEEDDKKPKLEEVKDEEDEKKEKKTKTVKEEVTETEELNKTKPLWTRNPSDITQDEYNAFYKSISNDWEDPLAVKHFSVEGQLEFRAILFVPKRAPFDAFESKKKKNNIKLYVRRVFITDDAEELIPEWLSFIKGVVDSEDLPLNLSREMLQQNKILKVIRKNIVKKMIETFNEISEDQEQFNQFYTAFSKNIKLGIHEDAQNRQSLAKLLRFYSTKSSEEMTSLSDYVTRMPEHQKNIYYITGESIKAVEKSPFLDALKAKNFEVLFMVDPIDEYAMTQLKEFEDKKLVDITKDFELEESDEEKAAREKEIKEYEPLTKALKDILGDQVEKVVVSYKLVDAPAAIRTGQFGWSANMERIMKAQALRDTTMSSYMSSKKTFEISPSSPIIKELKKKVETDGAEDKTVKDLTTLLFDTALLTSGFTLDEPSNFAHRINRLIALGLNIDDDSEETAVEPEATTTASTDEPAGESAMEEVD
Chain of Paired box protein Pax-8 (Q06710 whole entry): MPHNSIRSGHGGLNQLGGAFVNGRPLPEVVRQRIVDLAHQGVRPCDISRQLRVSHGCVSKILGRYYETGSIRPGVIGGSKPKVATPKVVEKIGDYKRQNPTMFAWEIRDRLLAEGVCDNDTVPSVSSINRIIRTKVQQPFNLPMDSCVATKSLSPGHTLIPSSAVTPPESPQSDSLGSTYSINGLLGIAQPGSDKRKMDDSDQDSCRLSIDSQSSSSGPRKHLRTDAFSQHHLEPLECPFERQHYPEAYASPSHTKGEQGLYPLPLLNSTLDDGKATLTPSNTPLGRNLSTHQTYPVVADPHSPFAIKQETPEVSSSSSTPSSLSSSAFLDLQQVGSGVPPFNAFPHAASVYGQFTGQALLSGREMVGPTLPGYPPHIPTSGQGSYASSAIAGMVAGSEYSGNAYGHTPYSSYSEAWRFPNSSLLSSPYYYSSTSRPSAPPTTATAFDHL

O=Cc1ccc2oc3nc4n(c(=O)c3c(=O)c2c1)CCCS4
IC50 (Estrogen receptor beta [1]): > 50000 nM (not active) | IC50 (Estrogen receptor): 17800 nM (active) | IC50 (Estrogen receptor beta [2]): > 50000 nM (not active)

O=C(NC(Nc1nc2ccc([N+](=O)[O-])cc2s1)(C(F)(F)F)C(F)(F)F)c1ccccc1Cl
EC50 [3]: 242 nM (active) | EC50 [4]: 22600 nM (active) | EC50 [5]: > 180000 nM (inactive) | EC50 [6]: 758 nM (active) | IC50 (Melanocortin receptor 4): > 64600 nM (inactive) | EC50 [7]: 242 nM (active) | EC50 [8]: 234 nM (active) | IC50 [9]: > 64600 nM (inactive) | EC50 [10]: 12300 nM (active) | EC50 [11]: 6530 nM (active) | EC50 (BJ [12]): 1110 nM (active) | EC50 (BJ [13]): 1350 nM (active) | AC50 (Paired box protein Pax-8): 676 nM (active) | EC50 (BJ [14]): 1410 nM (active) | EC50 [15]: 266 nM (active) | EC50 [16]: 1810 nM (active) | EC50 (BJ [17]): 5650 nM (inconclusive) | IC50 [18]: 1640 nM (active)
